Source: patent publication US8501713B2, “Drug combinations for the treatment of duchenne muscular dystrophy” (Summit Corporation PLC, priority 2007, dated 2013)
Like-named read-outs stand apart in the source and are kept apart here.

System: Utrophin A promoter linked to a luciferase reporter gene
Assay: Luciferase reporter assay (murine H2K cells)
Format: cell-based
Details: Mus musculus, H2K mdx
Summary of the method: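 Compound at 10 μM final was applied for 48 hrs to plated H2K mdx myoblasts (33° C, 10% CO2, interferon-containing medium) bearing a luciferase gene under the utrophin A promoter. Luminescence from lysed cells served as read-out.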

[1] = luciferase level relative to control, H2K/mdx/Utro A reporter cells, compound 10 μM final concentration, read-out: Activity

| SMILES | activity at 10 µM [1] | activity at 10 µM |
| --- | --- | --- |
| Cc1ccc(-c2nc3cc(NC(=O)C(C)C)ccc3s2)cc1 [Example 217, N-(2-p-tolylbenzo[d]thiazol-5-yl)isobutyramide] | > 401% |  |
| Cc1ccc(-c2nc3cc(C(N)=O)ccc3o2)cc1 [Example 218, 2-p-tolylbenzo[d]oxazole-5-carboxamide] | > 401% |  |
| CCC(=O)N(C)c1ccc2oc(-c3ccc(Cl)cc3)nc2c1 [Example 219, N-(2-(4-chlorophenyl)benzo[d]oxazol-5-yl)-N-methylpropionamide] | 301 to 400% |  |
| CC(C)S(=O)(=O)Nc1ccc2oc(-c3ccccc3)nc2c1 [Example 220, N-(2-phenylbenzo[d]oxazol-5-yl)propane-2-sulfonamide] | 201 to 300% |  |
| O=S(=O)(Nc1ccc2oc(-c3ccccc3)nc2c1)c1ccccc1 [Example 221, N-(2-phenylbenzo[d]oxazol-5-yl)benzenesulfonamide] | < 200% |  |
| Cc1cc2nc(-c3ccc(Cl)cc3)oc2cc1C [Example 222, 2-(4-chlorophenyl)-5,6-dimethylbenzo[d]oxazole] | > 401% |  |
| O=[N+]([O-])c1ccc2nc(-c3ccccn3)oc2c1 [Example 223, 6-nitro-2-(pyridin-2-yl)benzo[d]oxazole] | < 200% |  |
| Cc1cc2nc(-c3ccc(Cl)cc3Cl)oc2cc1C [Example 224, 2-(2,4-dichlorophenyl)-5,6-dimethylbenzo[d]oxazole] | > 401% |  |
| CCCC(=O)Nc1ccc2oc(-c3cccc(C(F)(F)F)c3)nc2c1 [Example 225, N-(2-(3-(trifluoromethyl)phenyl)benzo[d]oxazol-5-yl)butyramide] | < 200% |  |
| Cc1ccccc1-c1nc2cc(NC(=O)C(C)C)ccc2o1 [Example 226, N-(2-o-tolylbenzo[d]oxazol-5-yl)isobutyramide] | > 401% |  |
| CCCC(=O)Nc1ccc2oc(Cc3ccccc3)nc2c1 [Example 227, N-(2-benzylbenzo[d]oxazol-5-yl)butyramide] | < 200% |  |
| CC(C)C(=O)Nc1ccc2oc(Cc3ccccc3)nc2c1 [Example 228, N-(2-benzylbenzo[d]oxazol-5-yl)isobutyramide] | < 200% |  |
| CCCC(=O)Nc1ccc2oc(-c3ccccc3Cl)nc2c1 [Example 229, N-(2-(2-chlorophenyl)benzo[d]oxazol-5-yl)butyramide] | 301 to 400% |  |
| CC(C)C(=O)Nc1ccc2oc(-c3ccccc3Cl)nc2c1 [Example 230, N-(2-(2-chlorophenyl)benzo[d]oxazol-5-yl)isobutyramide] | > 401% |  |
| CC(C)C(=O)Nc1ccc2oc(-c3cccc(Cl)c3)nc2c1 [Example 231, N-(2-(3-chlorophenyl)benzo[d]oxazol-5-yl)isobutyramide] | > 401% |  |
| Nc1ccc2oc(-c3cccc(F)c3)nc2c1 [Example 232, 2-(3-fluorophenyl)benzo[d]oxazol-5-amine] | > 401% |  |
| Cc1ccc(-c2nc3cc(NC(=O)CCC(F)(F)F)ccc3o2)cc1 [Example 233, 4,4,4-trifluoro-N-(2-p-tolylbenzo[d]oxazol-5-yl)butanamide] | < 200% |  |
| Cc1ccc(-c2nc3c(N)cccc3o2)cc1 [Example 234, 2-p-tolylbenzo[d]oxazol-4-amine] | 301 to 400% |  |
| CCCC(=O)Nc1cccc2oc(-c3ccc(C)cc3)nc12 [Example 235, N-(2-p-tolylbenzo[d]oxazol-4-yl)butyramide] | < 200% |  |
| Cc1ccc(-c2nc3c(NC(=O)C(C)C)cccc3o2)cc1 [Example 236, N-(2-p-tolylbenzo[d]oxazol-4-yl)isobutyramide] | < 200% |  |
| Cc1ccc(-c2nc3ccc(N)cc3o2)cc1 [Example 237, 2-p-tolylbenzo[d]oxazol-6-amine] | > 401% |  |
| Cc1cc(NC(=O)c2ccc(F)cc2F)c(OC(=O)c2ccc(F)cc2F)cc1C [Example 238, 2-(2,4-difluorobenzamido)-4,5-dimethylphenyl 2,4-difluorobenzoate] | < 200% |  |
| CCCC(=O)Nc1ccc2oc(-c3cccc(Cl)c3)nc2c1 [Example 239, N-(2-(3-chlorophenyl)benzo[d]oxazol-5-yl)butyramide] | < 200% |  |
| O=C(Nc1ccccc1)Nc1ccc2oc(-c3ccccc3)nc2c1 [Example 240, 1-phenyl-3-(2-phenylbenzo[d]oxazol-5-yl)urea] | 301 to 400% |  |
| CC(C)NC(=O)Nc1ccc2oc(-c3ccccc3)nc2c1 [Example 241, 1-isopropyl-3-(2-phenylbenzo[d]oxazol-5-yl)urea] | < 200% |  |
| CCCC(=O)Nc1ccc2oc(-c3ccccc3F)nc2c1 [Example 242, N-(2-(2-fluorophenyl)benzo[d]oxazol-5-yl)butyramide] | < 200% |  |
| CC(C)C(=O)Nc1ccc2oc(-c3ccccc3F)nc2c1 [Example 243, N-(2-(2-fluorophenyl)benzo[d]oxazol-5-yl)isobutyramide] | 301 to 400% |  |

| SMILES | activity at 10 µM [1] | activity at 10 µM |
| --- | --- | --- |
| CCCC(=O)Nc1ccc2oc(-c3cccc(F)c3)nc2c1 [Example 244, N-(2-(3-fluorophenyl)benzo[d]oxazol-5-yl)butyramide] | > 401% |  |
| CC(C)C(=O)Nc1ccc2oc(-c3cccc(F)c3)nc2c1 [Example 245, N-(2-(3-fluorophenyl)benzo[d]oxazol-5-yl)isobutyramide] | 301 to 400% |  |
| CC(C)(C)OC(=O)NCCC(=O)Nc1ccc2oc(-c3ccccc3)nc2c1 [Example 246, tert-butyl 3-oxo-3-(2-phenylbenzo[d]oxazol-5-ylamino)propylcarbamate] | < 200% |  |
| Cc1cc2nc(-c3ccc(F)cc3F)oc2cc1C [Example 247, 2-(2,4-difluorophenyl)-5,6-dimethylbenzo[d]oxazole] | 201 to 300% |  |
| CC(C)C(=O)Nc1ccc2oc(C3CCCCC3)nc2c1 [Example 248, N-(2-cyclohexylbenzo[d]oxazol-5-yl)isobutyramide] | > 401% |  |
| CCCC(=O)Nc1ccc2oc(C3CCCCC3)nc2c1 [Example 249, N-(2-cyclohexylbenzo[d]oxazol-5-yl)butyramide] | < 200% |  |
| CCCCc1ccc(-c2nc3cc([N+](=O)[O-])ccc3o2)nc1 [Example 250, 2-(5-butylpyridin-2-yl)-5-nitrobenzo[d]oxazole] | < 200% |  |
| Nc1ccc2sc(-c3ccccc3)nc2c1 [Example 251, 2-phenylbenzo[d]thiazol-5-amine] |  | 301 to 400% |
| CC(=O)Nc1ccc(-c2ccc3oc(-c4ccc(Cl)cc4)nc3c2)cc1 [Example 252, N-(4-(2-(4-chlorophenyl)benzo[d]oxazol-5-yl)phenyl)acetamide] | 301 to 400% |  |
| CCCS(=O)(=O)Nc1ccc2oc(-c3ccc(C)cc3)nc2c1 [Example 253, N-(2-p-tolylbenzo[d]oxazol-5-yl)propane-1-sulfonamide] | < 200% |  |
| Cc1ccc(-c2nc3cc(NC(=O)CC(F)(F)F)ccc3o2)cc1 [Example 254, 3,3,3-trifluoro-N-(2-p-tolylbenzo[d]oxazol-5-yl)propanamide] | 201 to 300% |  |
| CC(C)C(=O)Nc1ccc2nc(-c3ccc(Cl)cc3)oc2c1 [Example 255, N-(2-(4-chlorophenyl)benzo[d]oxazol-6-yl)isobutyramide] | > 401% |  |
| CCCC(=O)Nc1ccc2nc(-c3ccc(Cl)cc3)oc2c1 [Example 256, N-(2-(4-chlorophenyl)benzo[d]oxazol-6-yl)butyramide] | 201 to 300% |  |
| CC(C)C(=O)Nc1ccc2oc(-c3ccc(Cl)cc3Cl)nc2c1 [Example 257, N-(2-(2,4-dichlorophenyl)benzo[d]oxazol-5-yl)isobutyramide] | < 200% |  |
| CC(C)C(=O)Nc1ccc2oc(-c3ccc(F)cc3)nc2c1 [Example 258, N-(2-(4-fluorophenyl)benzo[d]oxazol-5-yl)isobutyramide] | 301 to 400% |  |
| Cc1ccc(-c2nc3cc(NS(=O)(=O)C(C)C)ccc3o2)cc1 [Example 259, N-(2-p-tolylbenzo[d]oxazol-5-yl)propane-2-sulfonamide] | < 200% |  |
| CCCS(=O)(=O)Nc1ccc2oc(-c3ccc(Cl)cc3)nc2c1 [Example 260, N-(2-(4-chlorophenyl)benzo[d]oxazol-5-yl)propane-1-sulfonamide] | < 200% |  |
| CC(C)S(=O)(=O)Nc1ccc2oc(-c3ccc(Cl)cc3)nc2c1 [Example 261, N-(2-(4-chlorophenyl)benzo[d]oxazol-5-yl)propane-2-sulfonamide] | < 200% |  |
| CCCCc1ccc(-c2nc3ccc([N+](=O)[O-])cc3o2)nc1 [Example 262, 2-(5-butylpyridin-2-yl)-6-nitrobenzo[d]oxazole] | 201 to 300% |  |
| CC(C)NC(=O)c1ccc2oc(-c3ccc(Cl)cc3)nc2c1 [Example 263, 2-(4-chlorophenyl)-N-isopropylbenzo[d]oxazole-5-carboxamide] | 301 to 400% |  |
| NC(=O)c1ccc2oc(-c3ccc(Cl)cc3)nc2c1 [Example 264, 2-(4-chlorophenyl)benzo[d]oxazole-5-carboxamide] | > 401% |  |
| O=C(Nc1ccc2oc(-c3ccc(Cl)cc3)nc2c1)C1CC1 [Example 265, N-(2-(4-chlorophenyl)benzo[d]oxazol-5-yl)cyclopropanecarboxamide] | > 401% |  |
| O=C(Nc1ccc2oc(-c3ccc(Cl)cc3)nc2c1)C1CCC1 [Example 266, N-(2-(4-chlorophenyl)benzo[d]oxazol-5-yl)cyclobutanecarboxamide] | 301 to 400% |  |
| CC(C)C(=O)Nc1ccc2sc(-c3ccccc3)nc2c1 [Example 267, N-(2-phenylbenzo[d]thiazol-5-yl)isobutyramide] | > 401% |  |
| CC(C)C(=O)Nc1ccc2oc(-c3ccc(Cl)c(Cl)c3)nc2c1 [Example 268, N-(2-(3,4-dichlorophenyl)benzo[d]oxazol-5-yl)isobutyramide] | > 401% |  |
| CCS(=O)(=O)c1ccc(-c2ccc3oc(-c4ccc(Cl)cc4)nc3c2)cc1 [Example 269, 2-(4-chlorophenyl)-5-(4-(ethylsulfonyl)phenyl)benzo[d]oxazole] | < 200% |  |
